Literature values as cited in US6106863A, “Sustained-release metal valproate tablets” (priority 1996, dated 2000).

Experiments:
[1] = in vivo

CCCC(CCC)C(=O)[O-].[Na+] [Sodium valproate]
water solubility (in words): water-soluble
biological half-life (in words) [1]: short biological half-life
effective blood concentration [1]: 50 to 100 µg/mL
